Measured values published in PubChem BioAssay AID743417 (Broad Institute, 2014).
Results filed as inconclusive are left out. Active and inactive are the calls of the source.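 The calls were made as follows: active = compounds lowering the luciferase signal with a fitted half-maximal dose at most twice their top valid dose (cut at about 30 µM in these data); inconclusive = flat fits with moderate signal loss, or poor fits; inactive = the rest.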

System: Clone20 osteoblast Shn3 3'UTR firefly luciferase, 24 h
Assay: Shn3 3'UTR reporter inhibitors, dose response, cell-based, Clone20 osteoblasts, luminescence, dry powder, set 2 (AID 743417)

CC(=O)Oc1ccc(OC(C)=O)c(SCCCCCCl)c1
AC50: 2.58 µM

CC(=O)N1c2ccc(S(=O)(=O)N3CCC(C(=O)Nc4cccc(F)c4)CC3)cc2CC1C (configuration not stated)
AC50: 4.54 µM

Cc1ccc(Nc2nc(NCc3ccco3)c3ccccc3n2)cc1
AC50: 9.84 µM

Cc1cc(NC(=O)CCN2CCN(C/C=C/c3ccccc3)CC2)ccc1Br
AC50: 10.2 µM

CN(C)CCNC(=O)c1cccc2nc3cccc(F)c3nc12
AC50: 13.7 µM

Cc1cccc(NC(=O)c2nc(S(=O)(=O)Cc3ccccc3)ncc2Cl)c1
AC50: 2.66 µM

COc1cnc(-c2ccccn2)nc1NC(C)C
AC50: 2.81 µM

COc1cc(C#Cc2c(-c3cncn3C)n(C)c3ccc(-c4ccc(OC)nc4)cc23)cc(OC)c1
AC50: 20.5 µM

CC(C)c1ccc(Oc2cccc3c2S(=O)(=O)N(C2CCCC2)CC(COCc2ccccc2)O3)cc1 (configuration not stated)
AC50: 15.5 µM

O=C(Nc1nc2c(F)cc(F)cc2s1)c1ccccn1
AC50: 6.69 µM

Cc1ccc(-c2nc(NC(=O)c3nn(C)cc3[N+](=O)[O-])sc2C)cc1
AC50: 1.3 µM

c1ccc(CN=C(NCc2ccccc2)NCc2ccccc2)cc1
AC50: 1.79 µM

O=C(Nc1ccc(N2CCOCC2)cc1)c1ccc(Cl)c(S(=O)(=O)N2CCCC2)c1
AC50: 2.17 µM

Cc1ccc(C(=O)Nc2cccc3[nH]c(C(F)(F)F)nc23)cc1
AC50: 3.93 µM

CC(=O)c1ccc(N2CCC(c3cc(-c4ccc(Cl)cc4)n[nH]3)CC2)c([N+](=O)[O-])c1
AC50: 5 µM

CCC1CN2CCc3cc(OC)c(OC)cc3C2CC1CC1NCCc2c1[nH]c1ccc(O)cc21 (configuration not stated)
AC50: < 0.26 µM

Cc1cccc(C)c1NC(=O)CN(C)C(=O)c1cc(S(=O)(=O)N(C)C)ccc1N1CCCC1
AC50: 27.1 µM

CC1CCN(Cc2ccc(-c3nnn(CC(=O)Nc4ccccc4Cl)n3)cc2)CC1
AC50: 1.77 µM

CCCCN1CC(COCc2ccccc2)Oc2cccc(Oc3ccc(C)cc3)c2S1(=O)=O (configuration not stated)
AC50: 10.7 µM

COc1ccc(CC(N)c2csc(NC(=O)Nc3cccc(C(F)(F)F)c3)n2)cc1 (configuration not stated)
AC50: 8.4 µM

Cc1cccc(NS(=O)(=O)c2ccc(C3CCCCC3)cc2)c1
AC50: 5.13 µM

CSc1nnc(NC(=O)c2nc(S(=O)(=O)Cc3ccc(C)cc3)ncc2Cl)s1
AC50: 3.18 µM

Cc1ccc2nc(NNC(=O)c3ccc(S(=O)(=O)N4CCc5ccccc5C4)cc3)sc2c1
AC50: 1.62 µM

C/C(Cl)=C\Cn1c(NCCc2ccccc2)nc2c1c(=O)n(C)c(=O)n2C
AC50: 0.283 µM

Oc1ccccc1C(Nc1nccs1)c1ccc2cccnc2c1O (configuration not stated)
AC50: 1.13 µM

O=C(c1ccccc1)C(CN1CCCC1)c1ccccc1 (configuration not stated)
AC50: 10.7 µM

CCN(CC)S(=O)(=O)c1cc(NC(=O)CNc2cccc(S(=O)(=O)N3CCOCC3)c2)ccc1C
AC50: 2.97 µM

COC(=O)Oc1ccc(/C=C/C(=O)OC(C)C)cc1OC(=O)OC
AC50: 3.29 µM

S=C(NNc1ccnc2cc(Cl)ccc12)Nc1ccc(Cl)cc1Cl
AC50: 4.9 µM

O=[N+]([O-])c1cccnc1S(=O)(=O)c1ccccc1
AC50: 4.79 µM

CCCCNS(=O)(=O)c1ccc(S(=O)(=O)NCc2ccncc2)cc1
AC50: 2.4 µM

Cc1cc(C(=O)COC(=O)c2ccccc2O)c(C)n1Cc1cccs1
AC50: 8.99 µM

Cc1cc(C)c(C)c(S(=O)(=O)N2CCN(c3ncnc4ccccc34)CC2)c1C
AC50: 1.46 µM

O=S(=O)(/C(=C\c1ccc(C(F)(F)F)cc1)c1nc2ccccc2[nH]1)c1ccccc1
AC50: 1.85 µM

COc1ccccc1Cc1c(-c2ccco2)nc2c(C)cc(Br)cn12
AC50: 1.9 µM

COc1ccc(-c2nc(-c3ccc(NC(=O)c4ccncc4)cc3)no2)cc1OC
AC50: 2.36 µM

CN(CC(=O)Nc1ccccc1Cl)C(=O)c1cccc(S(=O)(=O)N2CCN(c3ccccc3)CC2)c1
AC50: 3.84 µM

O=C(CSc1c2c(nc3ccc(Cl)cc13)CCCC2)N1CCN(C(=O)c2ccco2)CC1
AC50: 3.75 µM

CCCOc1ccccc1C1CC(=O)Nc2cc3c(cc21)OCCO3 (configuration not stated)
AC50: 3.66 µM

C=CCC[C@H](Cc1ccc(F)cc1)C(=O)OC[C@H](Cc1c[nH]c2ccccc12)NC(=O)[C@@H](CC=C)CC(=O)N[C@H](CO)Cc1ccccc1
AC50: 4.44 µM

CCOc1ccc(-n2c(-c3ccccc3)c[n+]3c2CCC3)cc1
AC50: 0.526 µM

COc1ccc(COc2ccccc2C(=O)NCc2ccccc2)cc1F
AC50: 4.76 µM

CN(Cc1ccc(OCC(O)CN2CCCCC2)cc1)Cc1ccnc2ccccc12 (configuration not stated)
AC50: 1.21 µM

CCCc1nnc(NC(=O)c2nc(S(=O)(=O)Cc3ccc(C)cc3)ncc2Cl)s1
AC50: 0.538 µM

CC(=O)NC(c1ccc2ccccc2c1)c1ccc2cccnc2c1O (configuration not stated)
AC50: 0.422 µM

Cn1nc(-c2ccc(OCC(=O)N3CCN(Cc4ccccc4)CC3)cc2)c2ccccc2c1=O
AC50: 2.1 µM

COCC1CCN(C(=O)c2cc(COc3ccc4ncccc4c3)on2)CC1
AC50: 2.7 µM

COc1ccc(C(=O)C(C)OC(=O)c2cccc(S(=O)(=O)Nc3cc(Cl)c(OC)cc3OC)c2)cc1 (configuration not stated)
AC50: 5.54 µM

CCCCC1(Cc2ccc([N+](=O)[O-])cc2)C(=O)N(c2ccccc2)N(c2ccccc2)C1=O
AC50: 10.2 µM

O=C(Nc1ccc(Cl)c(Cl)c1)Nc1ccc(N2CCCC2)c(S(=O)(=O)Nc2ccccc2Cl)c1
AC50: 5.13 µM

CCC(CC)CC1CN2CCc3cc(OC)c(OC)cc3C2CC1(O)CC (configuration not stated)
AC50: 2 µM

Cc1cccc2sc(NNC(=O)c3ccc(S(=O)(=O)N4CC(C)CC(C)C4)cc3)nc12 (configuration not stated)
AC50: 2.57 µM

Cc1ccccc1CN1CC2=C(CCN(Cc3ccccc3)C2=O)N2CCN=C12
AC50: 2.41 µM

COc1ccc(NC(=O)C2Cc3c(-c4cccc(C(C)=O)c4)ccnc3O2)cc1OC (configuration not stated)
AC50: 0.799 µM

Cc1cc(C)c(O)c(-c2cc(C(=O)Nc3ccc(S(=O)(=O)N4CCOCC4)cc3)[nH]n2)c1
AC50: 5.48 µM

CCCOc1ccc(C(=O)NNC(=S)NC(=O)CC)cc1
AC50: 24.4 µM

COc1ccc(-c2ccc(Nc3ccc(S(=O)(=O)N4CCCC4)cc3)nn2)cc1OC
AC50: 20.1 µM

CCCCC(=O)NC(c1ccc(OC)c(OC)c1)c1ccc2cccnc2c1O (configuration not stated)
AC50: 1.36 µM

CC(C)C(=O)N1CCN(c2ccc(NC(=O)c3ccc([N+](=O)[O-])o3)cc2Cl)CC1
AC50: 0.954 µM

OC[C@@H]1CN(Cc2ccncc2)C[C@H](n2cnc3c(N4CCN(c5ccccc5)CC4)ncnc32)O1
AC50: 2.38 µM

COc1cccc(-c2cc(N3CCN(C(=O)c4ccoc4)CC3)n3nc(-c4cccc(Cl)c4)cc3n2)c1
AC50: 6.22 µM

CS(=O)(=O)c1ccc(Sc2nc3ccccc3s2)c([N+](=O)[O-])c1
AC50: 9.73 µM

Cc1cc(S(=O)(=O)c2ccc(Cl)cc2)nc(S(=O)(=O)c2ccc(Cl)cc2)c1C#N
AC50: 2.83 µM

Clc1ccc(-c2cc(-c3nnc4n3CCCCC4)c3ccccc3n2)cc1
AC50: 5.59 µM

Cc1cccc(NC(=O)Cn2cc(C(=O)C3CC3)c3ccccc32)c1C
AC50: 2.39 µM

CC12CC(O)C3c4ccc(O)cc4CCC3C1CCC2=O (configuration not stated)
AC50: > 70 µM (inactive)

CCOC(=O)Oc1c(OC)cc(C(=O)O[C@@H]2C[C@@H]3CN4CCc5c([nH]c6cc(OC)ccc56)[C@H]4C[C@@H]3[C@H](C(=O)OC)[C@H]2OC)cc1OC
AC50: 10.7 µM

CC1CCC2C(=O)N(c3ccc(Cc4ccncc4)cc3)C(=O)C2C1 (configuration not stated)
AC50: 2.65 µM

O=C(Nc1ccc(N2CCN(C(=O)c3ccco3)CC2)c(Cl)c1)c1cc2ccccc2o1
AC50: 5 µM

CCOC(=O)c1cccc(NC2c3ccccc3C(=O)N2Cc2ccco2)c1 (configuration not stated)
AC50: 4.26 µM

C=CC[C@H](CC(=O)N(CCO)Cc1ccccc1)C(=O)NC[C@H](OC(=O)[C@@H](CC=C)Cc1ccc(F)cc1)c1ccccc1
AC50: 10.7 µM

Cc1ccc(NC(=O)Cc2nn(C)c(=O)c3ccccc23)cc1F
AC50: 0.73 µM

O=C(Nc1ccc(N2CCOCC2)cc1)c1ccc(Cl)c(S(=O)(=O)N2CCCCC2)c1
AC50: 0.81 µM

C=CCNc1nc(-c2ccccn2)nnc1-c1ccccc1
AC50: 3.17 µM

CC/C(=C/c1ccccc1)c1cccc2[nH]c3c(OC)cccc3c12
AC50: 32.8 µM

COC(=O)c1ccc(COC(=O)c2[nH]c(C)c(C(C)=O)c2C)o1
AC50: 2.58 µM

CCCCC(=O)NC(c1ccccc1)c1ccc2cccnc2c1O (configuration not stated)
AC50: 2.35 µM

Cc1ccc(Oc2c(C(N)=O)cc([N+](=O)[O-])cc2[N+](=O)[O-])cc1
AC50: 11.9 µM

Cc1ccc(C)c(N2CCN(S(=O)(=O)c3ccc4[nH]c(=O)ccc4c3)CC2)c1
AC50: 24.2 µM

CCc1ccc(O)c(CNCCNCc2cc(CC)ccc2O)c1
AC50: 1.38 µM

CC(C)N=C(N)N=C(N)Nc1ccc(Cl)cc1
AC50: 0.37 µM

Oc1ccc(CN2CCCc3ccccc32)c2cccnc12
AC50: 5.4 µM

Cc1ccc(NC(=O)CSc2nn(-c3ccccc3)c(=S)s2)cc1S(=O)(=O)N(C)C
AC50: 5.82 µM

O=C1/C(=C/c2ccccc2)C[C@@]2(O)[C@H]3Cc4ccc(O)c5c4[C@@]2(CCN3CC2CC2)C1O5 (some centres not stated)
AC50: 4.64 µM

O=C(CSc1n[nH]c(-c2ccccn2)n1)Nc1cccc(Cl)c1
AC50: 2.9 µM

Cc1cc(S(=O)(=O)NCc2ccncc2)c(C)cc1Br
AC50: 1.23 µM

C=C1C(=O)c2sccc2C(c2ccc(OC)c(OC)c2)C1COC(C)=O (configuration not stated)
AC50: 0.662 µM

C=C1C(=O)OC2CC(C)C3C=CC(=O)C3(C)C(O)C12 (configuration not stated)
AC50: < 0.26 µM

CCCCN(C(C)=O)c1ccc2c(c1)C1CC2CCN1C(=O)OCc1ccccc1 (configuration not stated)
AC50: 1.37 µM

NC(=O)CC(NC(=O)c1ccc(Br)cc1)c1ccc(N2CCC(Br)CC2)c([N+](=O)[O-])c1 (configuration not stated)
AC50: 4.19 µM

CN(CC(=O)Nc1cc(S(=O)(=O)N2CCCC2)ccc1Cl)Cc1ccc2c(c1)OCO2
AC50: 13.1 µM

COc1ccc(NS(=O)(=O)c2ccc(NC(=O)C(CCSC)NC(N)=O)cc2)cc1 (configuration not stated)
AC50: > 70 µM (inactive)

CCN(CC)C(=O)C1CCN(S(=O)(=O)c2ccc3oc4ccccc4c3c2)CC1
AC50: 3.96 µM

CC(C)=CCC/C(C)=C/CNC(=O)C[C@H]1C[C@H](C(=O)N(C(C)C)C(C)C)[C@@]2(C)c3[nH]c4cc(CCC(=O)N(C)C)ccc4c3CCN2C1=O
AC50: 2.05 µM

CCOc1ccc(N(C)S(=O)(=O)c2cc(-c3cc(C)no3)ccc2C(C)C)cc1
AC50: 4.13 µM

CCCCN(c1nc2ccccc2nc1Cl)S(=O)(=O)c1ccc(C)cc1
AC50: 7.22 µM

C=C1C(=O)[C@]23C[C@H]1CCC2[C@@]1(C)C(C[C@@H]3O)[C@](C)(C(=O)OC)CC[C@@H]1O (some centres not stated)
AC50: 2.58 µM

C#CCN(C[C@@H]1[C@@H](OC(=O)NCC2CCCCC2)[C@@H](OC(=O)NCC2CCCCC2)Cn2c(=O)ccc(=O)n21)S(=O)(=O)c1ccc(C)cc1
AC50: 2.49 µM

O=C(OCn1ncc(Cl)c(Cl)c1=O)c1cccc(C(F)(F)F)c1
AC50: 3.74 µM

CCC(CC)CN1C(N(C)C)=NC[C@@H]1CC(C)C
AC50: 0.717 µM

CN(c1ccccc1)S(=O)(=O)c1cccc(NC(=O)c2ccc3ncsc3c2)c1
AC50: 17.2 µM

O=C(Nc1ccc(-c2nc3ncccc3o2)cc1)c1ccc([N+](=O)[O-])o1
AC50: 1.34 µM
